The values that follow come from the NIST ThermoML archive (doi:10.1016/j.jct.2004.11.007).

For series [1] the following is noted: for vapor or sublimation pressure: Liquid; for Triple point temperature: Crystal.
Series [2] is described as follows: Solid-liquid equilibrium temperature. Particulars: 100 kPa; Crystal.
Series [3] in a line: Molar enthalpy of transition or fusion. Particulars: Crystal; DSC.

± gives the expanded uncertainty stated by the source.

For `CCCCC(C)=O` [2-hexanone], the “vapor or sublimation pressure” value in series [1] (373.15 K) was found to be 43.8 ± 1.8 kPa. Besides, the Triple point temperature in series [1] worked out at 218.42 ± 2 K. For the same molecule, in series [2], the Solid-liquid equilibrium temperature was 215.57 ± 2 K.
Take `CCCC(=O)CCC` [4-heptanone]: in series [1] (visual observation), the Triple point temperature worked out at 241.77 ± 0.39 K.
`CN1CCCC1=O` [N-methylpyrrolidone]: the “vapor or sublimation pressure” value came out at 0.5 kPa in series [1] (333.15 K) and 3.6 ± 2.6 kPa in series [1] (373.15 K). Further, the Triple point temperature in series [1] (visual observation) turned out to be 249.68 ± 0.39 K. In series [3], the “Molar enthalpy of transition or fusion” value came out at 2.64 ± 0.0693 kcal/mol.
As for `CC(C)=O` [acetone], in series [1] (333.15 K), the “vapor or sublimation pressure” value was determined as 115.7 ± 5.4 kPa.
As for `O=C1CCCC1` [cyclopentanone], the Triple point temperature in series [1] (visual observation) is 220.77 ± 0.39 K.
In the case of `CCC(=O)CC` [pentan-3-one], the “vapor or sublimation pressure” value in series [1] (373.15 K) is 95.9 ± 4.9 kPa. Further, the Triple point temperature in series [1] (visual observation) is reported as 234.36 ± 0.39 K.
